These results are taken from patent US11135252B2, “Probiotic therapies for developmental disorders and other neurological disorders” (Baylor College of Medicine, priority 2016, dated 2021).

“Also recorded” adds a separate entry of the source.

In this assay the test system is MHFD offspring. Put plainly: Open field test in MHFD offspring. The format is in vivo, mice. Conditions: L. reuteri in drinking water. As for the experimental part: Mice were placed in an open arena (40×40×20 cm) and allowed to explore freely for 10 minutes while their position was continually monitored using tracking software (ANY-Maze). Tracking allowed for measurement of distance traveled, speed, and position in the arena throughout the task. Time spent in the center of the arena, defined as the interior 20×20 cm, was recorded. Lactobacillus reuteri MM4-1A (ATCC-PTA-6475) and Lactobacillus johnsonii (ATCC 33200) were cultured anaerobically in MRS broth in a 90% N2, 5% CO2, 5% H2 environment. L. reuteri was heat-killed by keeping the bacteria at 80° C. for 20 minutes (Wang et al., 2010). Bacterial viability was assessed by plating and the efficacy of the heat-kill procedure was confirmed by the absence of colony growth following plating. Cultures were centrifuged, washed, and resuspended in anaerobic solution (PBS) and frozen at −80° C. until use. PBS, live or heat-killed L. reuteri were added to the drinking water, which was changed daily to minimize dosage variability. Whereas the experimental group received live bacteria, one control group received identically prepared cultures of heat-killed bacteria. A second group of control mice received water treated with PBS alone. Live and heat-killed L. reuteri were supplied at a dosage of 1×10^8 organisms/mouse/day continuously in drinking water. […]

Turning to “Lactobacillus reuteri MM4-1A (ATCC-PTA-6475) [L. reuteri]”, the “time exploring the center of the open field arena (anxiety-related behavior)” value was “failed to rescue the changes in anxiety; also recorded: did not significantly affect this behavior”.
